In patent US20060100226A1, “2-Thiopyrimidinones as therapeutic agents” (priority 2004, published 2006):

Tests used:
murine MEKK2 (mMEKK2) [1] = molecular target: T1, murine MEKK2 (mMEKK2) (Mus musculus, UniProt Q61083); assay: MEKK2 PhosphoELISA (mMEKK2/MKK4); assay type: biochemical; conditions: substrate MKK4/SKK1 (unactive), ATP final 10 μM, O.D. 450 nm
T1 sequence (Q61083 1-619): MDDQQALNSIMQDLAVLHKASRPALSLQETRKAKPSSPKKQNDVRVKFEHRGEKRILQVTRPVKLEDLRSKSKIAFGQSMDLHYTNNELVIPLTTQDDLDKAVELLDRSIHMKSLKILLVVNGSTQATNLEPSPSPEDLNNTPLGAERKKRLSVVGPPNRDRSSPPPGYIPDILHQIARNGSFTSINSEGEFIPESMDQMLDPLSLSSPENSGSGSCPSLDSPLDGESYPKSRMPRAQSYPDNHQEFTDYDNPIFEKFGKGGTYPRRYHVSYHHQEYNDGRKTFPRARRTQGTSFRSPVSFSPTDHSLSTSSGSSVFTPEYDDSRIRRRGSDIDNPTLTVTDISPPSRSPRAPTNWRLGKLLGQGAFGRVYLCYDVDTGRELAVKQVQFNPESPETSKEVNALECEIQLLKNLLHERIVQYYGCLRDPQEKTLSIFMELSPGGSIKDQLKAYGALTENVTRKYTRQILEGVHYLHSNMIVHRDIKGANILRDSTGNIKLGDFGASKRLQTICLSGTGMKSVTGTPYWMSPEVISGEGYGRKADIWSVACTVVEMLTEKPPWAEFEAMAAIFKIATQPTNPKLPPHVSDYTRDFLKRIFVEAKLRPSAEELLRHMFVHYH
Text: Another useful method for assessing protein kinase inhibition, and specifically MEKK2 inhibition, of compounds of the invention involves the MEKK2 phospho-antibody enzyme-linked immunosorbent assay (PhosphoELISA). This screening panel, which involves relatively few steps, is a useful indicator of potential inhibitors of MEKK2. Reactions to murine MEKK2 are observed as optical density measurements at an absorbance of 450 nm. Inhibitory activities can be expressed in terms of IC50, where IC50 is the molar concentration of compound required to inhibit protein kinase binding by 50%.
A phospho-antibody enzyme-linked immunosorbent assay (PhosphoELISA) was used to screen potential inhibitors of MEKK2. The assay was performed as follows: Compounds to be tested were weighed and solubilized in DMSO (Sigma) to a stock concentration of 10 mM. Serial dilutions starting from 1 mM were prepared with additional DMSO. These dilutions were further diluted to 250 μM in kinase reaction buffer [20 mM Hepes pH 7.5, 5 mM MgCl2, 1 mM DTT (Dithiothreitol-Sigma), 1 mM NaVO4 (sodium vanadate- Sigma). A 25 μl aliquot of this solution was transferred to a glutathione coated 96-well microplate (Pierce). A stock aliquot containing 50-125 ng of murine MEKK2 (mMEKK2) was added to each well and incubated on the microplate for 10 minutes at room temperature. A 25 μl solution of MKK4/SKK1 (unactive) was diluted 1:200 in kinase assay buffer and added to the reaction plate followed by 50 μl of 25 μM ATP (adenosine triphosphate) to afford a final well concentration of 10 μM. The reaction was allowed to proceed for 60 minutes at room temperature before washing 3 times with wash buffer [100 mM phosphate pH 7.5, 0.05% TWEEN 20 (Sigma)]. A solution of anti-phospho MKK4/SEK1 antibody (Calbiochem) and biotin anti rabbit IgG (Jackson Immunoresearch) was diluted 1:2500 in kinase reaction buffer and added to the appropriate wells. The reaction was incubated for 60 minutes at room temperature. The microplate was washed 3 times with wash buffer and 100 ul of streptavidin horseradish peroxidase (HRP-Pierce) was added and incubated for 30 minutes at room temperature. The microplate was washed 3 times with wash buffer and 100 μl of TMB (3,3′,5,5′-tetramethylbenzidine-Sigma) was added. The assay was allowed to develop for 15-20 minutes then the reaction was stopped with the addition of 100 μl of 0.2 N sulfuric acid. The optical density (O.D.) of the plate was read on the Victor™ plate reader using the absorbance at 450 nm.

murine MEKK2 (mMEKK2) [2] = molecular target: T1, murine MEKK2 (mMEKK2); assay: TR-FRET kinase assay (mMEKK2/MBP); assay type: biochemical; conditions: substrate biotin MBP, 60 minutes at room temperature
In short: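 mMEKK2 was preincubated 10 min with compound in pH 7.5 Hepes/MgCl2/DTT/vanadate buffer, then biotin-MBP, anti-phospho-MBP antibody and ATP (5 uM solution added) were added and the reaction ran 60 min at room temperature. After EDTA stop, europium anti-mouse IgG and Cy5-streptavidin were added and TR-FRET was read at 615/665 nm.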

Row | Structure (SMILES) | IC50 (murine MEKK2 (mMEKK2) [1]) | IC50 (murine MEKK2 (mMEKK2) [2])
1 | COc1cccc(-c2nc(SCc3cccc(NCc4ccc(Cl)c(Cl)c4)c3)[nH]c(=O)c2C#N)c1 [Example 1a, 2-[3-(3,4-Dichloro-benzylamino)-benzylsulfanyl]-4-(3-methoxy-phenyl)-6-oxo-1,6-dihydro-pyrimidine-5-carbonitrile] | < 1 µM | < 1 µM
2 | COc1ccc(-c2nc(SCc3cccc(NCc4ccc(Cl)c(Cl)c4)c3)[nH]c(=O)c2C#N)cc1OC [Example 1b, 2-[3-(3,4-Dichloro-benzylamino)-benzylsulfanyl]-4-(3,4-dimethoxy-phenyl)-6-oxo-1,6-dihydro-pyrimidine-5-carbonitrile] | < 1 µM | < 5 µM
3 | COc1ccc(-c2nc(SCc3cccc(NCc4ccc(Cl)c(Cl)c4)c3)[nH]c(=O)c2C#N)cc1-c1cccs1 [Example 1c] | < 1 µM | < 5 µM
4 | COc1cccc(-c2nc(SCc3cccc(NCc4cccc(Oc5ccc(Cl)cc5)c4)c3)[nH]c(=O)c2C#N)c1 [Example 1cc] | < 1 µM | < 1 µM
5 | COc1cccc(-c2nc(SCc3cccc(NCc4ccccc4)c3)[nH]c(=O)c2C#N)c1 [Example 1d] | < 5 µM | < 5 µM
6 | COc1cccc(-c2nc(SCc3cccc(NCc4ccc5cccc(O)c5n4)c3)[nH]c(=O)c2C#N)c1 [Example 1v] | < 1 µM | < 1 µM

Second part, the compound after the results:

Row | IC50 (murine MEKK2 (mMEKK2) [1]) | IC50 (murine MEKK2 (mMEKK2) [2]) | Structure (SMILES)
7 | < 1 µM | < 5 µM | N#Cc1c(-c2ccccc2-c2cc3ccccc3s2)nc(SCc2cccc(NC(=O)c3ccc(Cl)c(Cl)c3)c2)[nH]c1=O [Example 2bb, N-{3-[4-(2-Benzo[b]thiophen-2-yl-phenyl)-5-cyano-6-oxo-1,6-dihydro-pyrimidin-2-ylsulfanylmethyl]-phenyl}-3,4-dichloro-benzamide]
8 | < 5 µM | < 5 µM | N#Cc1c(-c2ccccc2OC(F)(F)F)nc(SCc2cccc(NC(=O)c3ccc(Cl)c(Cl)c3)c2)[nH]c1=O [Example 2dd, 3,4-Dichloro-N-{3-[5-cyano-6-oxo-4-(2-trifluoromethoxy-phenyl)-1,6-dihydro-pyrimidin-2-ylsulfanylmethyl]-phenyl}-benzamide]
9 | < 1 µM | < 10 µM | N#Cc1c(-c2ccccc2C(F)(F)F)nc(SCc2cccc(NC(=O)c3ccc(Cl)c(Cl)c3)c2)[nH]c1=O [Example 2ee, 3,4-Dichloro-N-{3-[5-cyano-6-oxo-4-(2-trifluoromethyl-phenyl)-1,6-dihydro-pyrimidin-2-ylsulfanylmethyl]-phenyl}-benzamide]
10 | < 5 µM | < 5 µM | N#Cc1c(-c2ccc(C(F)(F)F)cc2)nc(SCc2cccc(NC(=O)c3ccc(Cl)c(Cl)c3)c2)[nH]c1=O [Example 2ff, 3,4-Dichloro-N-{3-[5-cyano-6-oxo-4-(4-trifluoromethyl-phenyl)-1,6-dihydro-pyrimidin-2-ylsulfanylmethyl]-phenyl}-benzamide]
11 | < 5 µM | > 40 µM | N#Cc1c(-c2cccc(C(F)(F)F)c2)nc(SCc2cccc(NC(=O)c3ccc(Cl)c(Cl)c3)c2)[nH]c1=O [Example 2gg, 3,4-Dichloro-N-{3-[5-cyano-6-oxo-4-(3-trifluoromethyl-phenyl)-1,6-dihydro-pyrimidin-2-ylsulfanylmethyl]-phenyl}-benzamide]
12 | < 5 µM | < 5 µM | COc1cccc(-c2nc(SCc3cccc(NC(=O)c4ccc(Cl)c(Cl)c4)c3)[nH]c(=O)c2C#N)c1 [Example 2h]
13 | < 20 µM | < 40 µM | N#Cc1c(-c2ccc(OC(F)(F)F)cc2)nc(SCc2cccc(NC(=O)c3ccc(Cl)c(Cl)c3)c2)[nH]c1=O [Example 2hh, 3,4-Dichloro-N-{3-[5-cyano-6-oxo-4-(4-trifluoromethoxy-phenyl)-1,6-dihydro-pyrimidin-2-ylsulfanylmethyl]-phenyl}-benzamide]
14 | < 10 µM | < 10 µM | COc1cccc(-c2nc(SCc3cccc(NC(=O)c4c(-c5ccccc5)noc4C)c3)[nH]c(=O)c2C#N)c1 [Example 2i]
15 | < 1 µM | < 5 µM | N#Cc1c(-c2cccc([N+](=O)[O-])c2)nc(SCc2cccc(NC(=O)c3ccc(Cl)c(Cl)c3)c2)[nH]c1=O [Example 2ii, 3,4-Dichloro-N-{3-[5-cyano-4-(3-nitro-phenyl)-6-oxo-1,6-dihydro-pyrimidin-2-ylsulfanylmethyl]-phenyl}-benzamide]
16 | < 1 µM | < 5 µM | COc1ccc(-c2nc(SCc3cccc(NC(=O)c4ccc(Cl)c(Cl)c4)c3)[nH]c(=O)c2C#N)cc1-c1cccs1 [Example 2y, 3,4-Dichloro-N-{3-[5-cyano-4-(4-methoxy-3-thiophen-2-yl-phenyl)-6-oxo-1,6-dihydro-pyrimidin-2-ylsulfanylmethyl]-phenyl}-benzamide]
17 | < 1 µM | < 1 µM | N#Cc1c(-c2cccc(-c3cc4ccccc4s3)c2)nc(SCc2cccc(NC(=O)c3ccc(Cl)c(Cl)c3)c2)[nH]c1=O [Example 2z, N-{3-[4-(3-Benzo[b]thiophen-2-yl-phenyl)-5-cyano-6-oxo-1,6-dihydro-pyrimidin-2-ylsulfanylmethyl]-phenyl}-3,4-dichloro-benzamide]
18 | < 10 µM | < 10 µM | N#Cc1c(-c2cccc(N)c2)nc(SCc2cccc(NC(=O)c3ccc(Cl)c(Cl)c3)c2)[nH]c1=O [Example 4n]
19 | > 40 µM | – | CCOC(=O)C1CCN(c2ccccc2-c2nc(SCc3cccc(NC(=O)c4ccc(Cl)c(Cl)c4)c3)[nH]c(=O)c2C#N)CC1 [Example 4x]
20 | > 40 µM | – | CCN(CC)CCOc1ccc(-c2nc(SCc3cccc(NC(=O)c4ccc(Cl)c(Cl)c4)c3)[nH]c(=O)c2C#N)cc1 [Example 4z]
